Measured values: US20250084036A1, “COMPOUND, ALDEHYDE DEHYDROGENASE 2 ACTIVATOR, PHARMACEUTICAL COMPOSITION, AND THERAPEUTIC AND/OR PROPHYLACTIC DRUG” (Alchemedicine, Inc., priority 2022, published 2025)

Key:
[1] = target: T1, human recombinant ALDH2 enzyme (Homo sapiens, UniProt P05091); test: Test Example 1-1: ALDH2 activation effect (acetaldehyde oxidation rate, PicoProbe kit); type: biochemical; settings: ALDH2 2 μg/mL, 180 min measurement
T1 construct: purchased Abcam ab87415
T1 sequence (P05091 18-517): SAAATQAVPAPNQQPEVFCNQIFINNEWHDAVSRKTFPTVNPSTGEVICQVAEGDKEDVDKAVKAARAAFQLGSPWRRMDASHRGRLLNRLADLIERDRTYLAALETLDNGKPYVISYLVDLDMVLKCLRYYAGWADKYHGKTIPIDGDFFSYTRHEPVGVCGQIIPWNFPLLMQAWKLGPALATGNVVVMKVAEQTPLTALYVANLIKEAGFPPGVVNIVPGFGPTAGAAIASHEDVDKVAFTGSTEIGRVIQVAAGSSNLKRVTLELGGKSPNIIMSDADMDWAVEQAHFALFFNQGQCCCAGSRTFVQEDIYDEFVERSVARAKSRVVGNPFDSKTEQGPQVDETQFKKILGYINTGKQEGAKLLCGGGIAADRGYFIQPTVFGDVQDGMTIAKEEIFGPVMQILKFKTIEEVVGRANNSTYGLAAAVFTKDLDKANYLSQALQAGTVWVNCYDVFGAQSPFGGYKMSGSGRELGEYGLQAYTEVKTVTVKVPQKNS
Protocol: The activation effect of each test compound on the acetaldehyde oxidation rate of ALDH2 was measured with the following method. A test was conducted by using a commercially available PicoProbe™ Aldehyde dehydrogenase Activity Assay Kit (manufactured by BioVision Inc.) with reference to an instruction attached to the product under the following conditions. To each well of a 384-well plate, the following (1) to (3) were sequentially added with a pipette: • (1) 10 μL of solution obtained by dissolving and diluting a human recombinant ALDH2 enzyme (manufactured by Abcam, product number: ab87415) with ALDH assay Buffer (final concentration: 2 μg/mL); • (2) 10 μL of 30 μM or 90 μM test compound solution (with 3% DMSO) prepared by using ALDH assay Buffer; and • (3) 10 μL of Reaction mix composed with ratio of […] of ALDH assay Buffer, 0.6 μL of PicoProbe, 0.3 μL of Substrate Mix, and 1.5 μL of Acetaldehyde.
Before addition of (3), incubation was performed at room temperature for 5 minutes. After addition of (3), fluorescence intensity was measured at room temperature every 2.5 minutes over a period of 180 minutes by using an EnSight (manufactured by PerkinElmer Inc.) to determine the oxidation rate. Wavelengths of 535 nm and 587 nm were used for fluorescence intensities of excitation and emission, respectively.

[2] = Test Example 2: Metabolic stability with mouse hepatic microsomes; type: in vitro ADME; settings: after 30 minutes, 37° C., NADPH; further: tested at 0.99 µM
Protocol: Metabolic stability in mouse hepatic microsomes was evaluated with the following method.
• (1) Mouse hepatic microsomes: 20 mg/mL • (2) Test compound: 1.1 mM DMSO solution • (3) Potassium phosphate buffer solution: 66.7 mM (pH 7.4) • (4) NADPH solution: 10 mM in potassium phosphate buffer solution • (5) Quenching solution: 0.5% formic acid-acetonitrile solution with warfarin as internal standard substance
Into a propylene tube, 971.5 μL of the potassium phosphate buffer solution and 27.5 μL of the mouse hepatic microsomes were put, and suspended. Thereto, 1 μL of a test compound was added, and 180 μL was taken from this mixture and transferred into another tube. The mixture was preincubated at 37° C. for 5 minutes, and 20 μL of the NADPH solution (for the case with an incubation time of 30 minutes) or 20 μL of the potassium phosphate buffer solution (for the case with an incubation time of 0 minutes) was then added thereto. After incubation, 200 μL of the quenching solution was added to terminate the reaction. Subsequently, centrifugation was performed at 3220×g for 20 minutes, and the concentration of the unchanged form of the test compound in 200 μL of the supernatant was measured with LC-MS/MS. On the basis of the peak area obtained for the unchanged form, the residual rate (%) of the unchanged form was calculated as that for the case with an incubation time of 0 minutes was assumed as 100%.

[3] = tested on: pain induced by carrageenan, C57BL/6J mice; test: Test Example 5: Suppression effect on pain induced by carrageenan (von Frey escape score); type: in vivo, mouse; settings: mean ± SE, n=8
Protocol: This experiment was carried out with reference to Science Translational Medicine 6, 251ra118 (2014). Animals used were 7-week-old male C57BL/6J mice (The Jackson Laboratory Japan, Inc.). To induce mechanical allodynia to a sole part, carrageenan was subcutaneously administered to the sole of the left hind limb of each mouse. The escape response against mechanical stimulation 180 minutes after the induction was measured by using a von Frey filament with bending force (0.16 grams) to the sole surface of the left hind limb in the ascending direction. The mouse was stimulated in the vertical direction for 6 seconds until the filament bent, and the escape response of the mouse was rated with three-grade scoring (0: no response or startle response (displacing the foot without ascending), 1: ascending the foot, 2: licking or shaking the foot). Stimulation was performed 10 times, and the total value of 10 scores (escape score) was calculated.
The compound (Example 3) was dissolved in DMSO/PEG400 (volume ratio: 1:1), and 2, 6, or 20 mg/kg (no compound for a Vehicle group) of the compound was subcutaneously administered to the back of the neck three times in total at the same dose: 15 minutes before injection of carrageenan, 30 minutes after injection of carrageenan, and 150 minutes after injection of carrageenan, each at a dose of 5 mL/kg in liquid volume. A 1.5% carrageenan solution was prepared with physiological saline, and subcutaneously administered to the sole of the left hind limb at 7 μL/body.
In significance test, multiple comparison by the Steel's test was carried out for comparison between the Vehicle group and Example 3 group, where the significance level was set to 5%, and calculation was separately performed for lower than 5% (p<0.05) and for lower than 1% (p<0.01). The commercially available statistical program SAS SYSTEM (SAS Institute Japan Ltd.) was used for the significance test.

[4] = Test Example 3: Metabolic stability with human hepatic microsomes; type: in vitro ADME; settings: human hepatic microsomes 0.1 mg protein/mL, 0.1 μmol/L test compound, after 30 minutes, 37° C.
Protocol: For the compounds of Examples 1 to 9, which had been confirmed to have stability in the mouse hepatic microsome test, metabolic stability with human hepatic microsomes was measured. The specific method is as follows. • (1) Fifty microliter-portions were taken from 0.2 μmol/L test compound diluted with β-NADPH solution. • (2) Fifty microliters of 0.2 mg protein/mL human hepatic microsome solution was added to each (except for a sample with a reaction time of 0 minutes). • (3) Incubation was performed with shaking at 37° C. for 30 minutes (concentration in reaction sample: 0.1 μmol/L test compound, 0.1 mg protein/mL human hepatic microsome) • (4) After incubation, 400 μL of methanol was added to terminate the reaction. • (5) To the sample with a reaction time of 0 minutes, 50 μL of 0.2 mg protein/mL hepatic microsome solution was added. • (6) Each of the samples from (4) and (5) was left to stand at −20° C. for 30 minutes or longer, and then centrifuged at 4° C. and 3,000 rpm for approximately 10 minutes. • (7) The supernatant was subjected to measurement with LC/MS/MS, and, on the basis of the peak area obtained for the unchanged form, the residual rate (%) of the unchanged form was calculated as that for the case with an incubation time of 0 minutes was assumed as 100%.

## COc1ncc(CNC(=O)c2cc(-c3ncccc3CO)ccc2F)cc1F [Example 3, 2-Fluoro-N-((5-fluoro-6-methoxypyridin-3-yl)methyl)-5-(3-(hydroxymethyl)pyridin-2-yl)benzamide]
[1]; test compound 10 μM
  acetaldehyde oxidation rate (no test compound = 100%): 188%
[1]; test compound 30 μM
  acetaldehyde oxidation rate (no test compound = 100%): 226%
[2]
  Residual rate (%) of unchanged form: 93%
[3]; 2 mg/kg s.c. three times, 180 min after induction with carrageenan, p<0.01 vs Vehicle (9.4 ± 0.5)
  Pain-related total score: 5.3 ± 0.3
[3]; 2 mg/kg s.c. three times, Pre (before induction)
  Pain-related total score: 1.8 ± 0.5
[3]; 6 mg/kg s.c. three times, 180 min after induction with carrageenan, p<0.01 vs Vehicle (9.4 ± 0.5)
  Pain-related total score: 4.6 ± 0.3
[3]; 6 mg/kg s.c. three times, Pre (before induction)
  Pain-related total score: 1.8 ± 0.5
[3]; 20 mg/kg s.c. three times, 180 min after induction with carrageenan, p<0.01 vs Vehicle (9.4 ± 0.5)
  Pain-related total score: 3.9 ± 0.3
[3]; 20 mg/kg s.c. three times, Pre (before induction)
  Pain-related total score: 1.8 ± 0.4
[4]
  Residual rate (%) of unchanged form: 93%
